Measurements from patent US20220090023A1, “METHODS FOR REGULATING POTENCY OF PLURIPOTENT STEM CELLS AND APPLICATIONS THEREOF” (ACADEMIA SINICA, priority 2018, published 2022).
Read-outs that look alike come from different tables or passages of the source.

How the values were obtained:
Type in all cases: cell-based, human
[1] = test system: hNSC; experiment: IC50 analyses of three inhibitors of cell growth, hNSC; details: for IC50: hNSC, inhibitors for 3 days; for hPSCs more sensitive than human neural stem cells (hNSCs): hNSCs vs hPSCs
Experimental: (§1) Human BMMSCs (Lonza) were cultured in MSC NutriStem XF Medium (Defined, xeno-free, serum-free medium) and grown on Corning CellBIND Surface plates with inhibitor treatments for 3 days. Human neural stem cells (NSCs) were differentiated from H9 hESCs with Gibco PSC Neural Induction Medium (serum-free medium) for 7 days. And the NSCs were replated on matrigel-coated plate and supplied with each inhibitors for 3 days.
(§2) To check the functional roles of cholesterol on pluripotency, cholesterol inhibitor simvastatin, AY9944, Methyl-β-cyclodextrin (MBCD) were used to inhibit cholesterol biosynthesis (FIG. 4A). […] HMGCR is the rate-limiting enzyme of cholesterol biosynthesis. The side effects of statin are few and no cytotoxic side effects in human has been reported. AY9944 inhibits Δ7-dehydrocholesterol reductase (DHCR7), and decrease levels of cholesterol (Wassila Gaoua, 2000). Methyl-β-cyclodextrin (MBCD) directly deprived cellular cholesterol (Mahammad and Parmryd, 2015) (FIG. 4A). […] Next, we would like to know whether PSCs are more rely on cholesterol pathway. Thus, we compared the sensitivities of three cholesterol inhibitors in PSCs and three somatic fibroblast cells. Primary human foreskin fibroblasts (CRL-2097), a human foreskin fibroblast cell line (BJ-5Ta), and a fetal lung fibroblast cell line (IMR-90) were used for comparison.

[2] = test system: HUES6 hESCs; experiment: Alkaline phosphatase activity after cholesterol inhibitor treatment; details: treatment for 3 days
Description: as §2

[3] = test system: hBMSC; experiment: IC50 analyses of three inhibitors of cell growth, hBMSC; details: for hPSCs more sensitive than human bone marrow mesenchymal stem cells (hBMMSCs): hBMMSCs vs hPSCs; for IC50: hBMSC, inhibitor treatments for 3 days
Experimental: as §1, §2

[4] = test system: HUES6; experiment: IC50 analyses of three inhibitors of cell growth, HUES6
Experimental: (§3) For feeder-free experiments, cells were cultured in a chemically defined medium (Essential 8 medium).
(§4) hESCs were cultured with Essential 8 medium (Thermo Fisher, A1517001) which containing 15% Alamar blue at 37° C. for 5 hours. The activities were calculated by measuring absorbance at 570 nm and 600 nm. To count the cell numbers with trypan blue assay, cells were treated with trypsin and the suspended cells were mixed 0.2% trypan blue (1:1) and counted with a hemocytometer.
as §2, with “Primary human foreskin fibroblasts (CRL-2097), a human foreskin fibroblast cell line (BJ-5Ta), and a fetal lung fibroblast cell line (IMR-90) were used for comparison.” left out

[5] = test system: BJ-5Ta; experiment: IC50 analyses of three inhibitors of cell growth, BJ-5Ta
Description: as §2

[6] = test system: PODXL overexpressing hESCs; experiment: Inhibitor treatment of PODXL overexpressing hESCs (Alamar blue, ALP activity); details: PODXL overexpressed one day, then inhibitor treatment for 3 days
Experimental: as §4

[7] = test system: H9; experiment: IC50 analyses of three inhibitors of cell growth, H9
Experimental: as §3, §4
as §2, with “Primary human foreskin fibroblasts (CRL-2097), a human foreskin fibroblast cell line (BJ-5Ta), and a fetal lung fibroblast cell line (IMR-90) were used for comparison.” left out

[8] = test system: CRL-2097; experiment: IC50 analyses of three inhibitors of cell growth, CRL-2097; details: for IC50 higher in primary fibroblasts than HUES6: primary fibroblasts vs HUES6
Description: as §2

[9] = test system: IMR-90; experiment: IC50 analyses of three inhibitors of cell growth, IMR-90
Description: as §2

[10] = test system: PODXL downregulated HUES6 hESCs; experiment: Cholesterol rescue in PODXL knockdown hESCs (Alamar blue, ALP activity); details: cholesterol addition for 4 days
Experimental: (§5) FIGS. 5A-5B. Cholesterol addition rescue hESC renewal in PODXL knockdown cells. […] Quantification of Annexin V/PI-positive cells was executed in triplicates (bottom left panel). P-values were calculated by performing one-way ANOVA against the shRFP hESCs (*p<0.05, **p<0.01, ***p<0.001). (Bottom right panel) Cholesterol restores the c-MYC/TERT expressions decrease by the expression of shPODXL. Western Blots were executed in PODXL knockdown HUES6 hESCs with the addition of cholesterol for 4 days.
as §4
Alkaline phosphatase (ALP) activities were calculated by adding the substrate of ALP, p-nitrophenyl phosphate (pNPP) (N7653, sigma), in the culture medium. The plate were incubated at 37° C. less than 5 minutes, then the absorbance was measured at 405 nm. For Alkaline phosphatase (ALP) staining, hPSCs were first washed with PBS and used 4% formaldehyde as a fixative. After fixing for 3 minutes, the cells were washed with 1×PBS and were stained by ALP staining reagent (Sigma). Then the cells were further washed by PBS. […]

[11] = test system: CRL2097; experiment: iPSC reprogramming efficiency with cholesterol (alkaline phosphatase assay); details: with OSKM 4 factors
Experimental: FIG. 6. The addition of cholesterol promote the iPSCs reprogramming efficiency. CRL2097 (passage 9) were seeded and infected with lentivirual vector (OSKM) with final concentration of cholesterol (0, 0.5×, 1×, 2×, 5×, 8×) which was diluted from 500× concentrated SyntheChol® NSO Supplement (S5442, Sigma). Alkaline phosphatase assay was performed to assay the reprogramming efficiency.
CRL2097 (passage 9) were seeded and infected with lentivirual vector (OSKM) with final concentration of cholesterol (0, 0.5×, 1×, 2×, 5×, 8×) which was diluted from 500× concentrated SyntheChol® NSO Supplement (S5442, Sigma). After 4 days viral transduction, cell were replated on matrigel-coated 6-well plates as cell number 27, 000 per well. 2 days later for cell attachment, cholesterol were supplied continually during reprogramming procedure. To better evaluate cholesterol effect to iPSC generation, serum-free defined E8 medium (containing 250 μM sodium butyrate, 50 μg/ml Vitamin C) was used for iPSC generation.
In addition, cholesterol can boost the reprogramming efficiency (total AP positive, 7.62-fold) with OSKM 4 factors.

[12] = test system: c-MYC, TERT, HMGCR, PODXL, TRA-1-60; experiment: Western blot in PODXL knockdown hESCs with cholesterol; details: PODXL downregulated cells, cholesterol for 4 days
Experimental: as §5
Whole-cell protein extracts were purified from hPSCs or using RIPA lysis buffer (1% NP40, 50 mM Tris, pH 8.0, 150 mM NaCl, 2 mM EDTA) with the presence of protease inhibitor cocktail (Roche, 04693132001). Protein concentration was quantified by Bio-Rad Bradford Protein Assay. Equal amounts of protein were subjected to a 10% SDS-PAGE gel and blotted onto 0.22 um PVDF membrane (Millipore, ISEQ00010). Blots were blocked in 5% BSA/TBST at room temperature for 1 hr. The blots were incubated with the primary antibodies in 5% BSA/TBST at 4° C. overnight. […]

[13] = test system: PODXL knockdown hESCs; experiment: Annexin V/PI apoptosis in PODXL knockdown hESCs with cholesterol; details: PODXL knockdown for six days
Experimental: as §5
hESCs were dissociated by accutase. The cells were stained according to manufactures' instructions (eBioscience, 88-8005-72). In brief, cells (5×10^5) were suspended at in 100 μl 1× binding buffer, and then stained with 2.5 μl of Annexin V-FITC. After reaction for 20 min at room temperature, the cells were incubated with 2.5 μl of PI solution for 10 min. Then the cells were diluted with PBS and analyzed with a flow cytometer.
To examine if cholesterol is the major downstream of PODXL, rescue experiment with cholesterol was performed.

## Methyl-β-cyclodextrin [MBCD]
[1]
  IC50: 3020 µM
  hPSCs more sensitive than human neural stem cells (hNSCs): 2.44 fold
[2]
  Alkaline phosphatase activities (stem cell marker expression): hampered
[3]
  hPSCs more sensitive than human bone marrow mesenchymal stem cells (hBMMSCs): 2.65 fold
  IC50: 3290 µM
[4]
  IC50: 1350 µM
[5]; no serum
  IC50: 2340 µM
[5]; serum
  IC50: 3770 µM
[6]
  upregulation in self-renewal (cell growth and ALP activity) by PODXL overexpression: inhibited
[7]
  IC50: 1130 µM
[8]; CRL-2097, no serum
  IC50: 2600 µM
[8]; CRL-2097, serum
  IC50: 3860 µM
[8]
  IC50 higher in primary fibroblasts than HUES6: 2 fold
[9]; IMR-90, no serum
  IC50: 2640 µM
[9]; IMR-90, serum
  IC50: 2810 µM

## CC(C)CCC[C@@H](C)[C@H]1CC[C@H]2[C@@H]3CC=C4C[C@@H](O)CC[C@]4(C)[C@H]3CC[C@]12C [cholesterol]
[10]; Alamar blue
  relative cell number loss from PODXL knockdown: prevent
[10]
  reduction in ALP activity from PODXL knockdown: prevent
[11]
  reprogramming efficiency (total AP positive): 7.62 fold
[12]
  expression levels of c-MYC, TERT, HMGCR, PODXL, TRA-1-60: rescued
[13]
  apoptosis of the hPSCs: substantially restored

## CCC(C)(C)C(=O)O[C@H]1C[C@@H](C)C=C2C=C[C@H](C)[C@H](CC[C@@H]3C[C@@H](O)CC(=O)O3)[C@H]21 [Simvastatin, (1S,3R,7S,8S,8aR)-1,2,3,7,8,8a-Hexahydro-3,7-dimethyl-8-[2-[(2R,4R)-tetrahydro-4-hydroxy-6-oxo-2H-pyran-2-yl]ethyl]-1-naphthalenyly-2,2-dimethyl butanoate]
[1]; Homo sapiens, 72 h
  IC50: 31.2 µM
[1]
  hPSCs more sensitive than human neural stem cells (hNSCs): 568 fold
[3]; Homo sapiens, 72 h
  IC50: 8.97 µM
[3]
  hPSCs more sensitive than human bone marrow mesenchymal stem cells (hBMMSCs): 163 fold
[4]; Homo sapiens
  IC50: 0.16 µM
[5]; Homo sapiens, no serum
  IC50: 1.96 µM
[5]; Homo sapiens, serum
  IC50: 4.36 µM
[7]; Homo sapiens
  IC50: 0.02 µM
[8]; Homo sapiens, CRL-2097, no serum
  IC50: 4.35 µM
[8]; Homo sapiens, CRL-2097, serum
  IC50: 5.44 µM
[8]
  IC50 higher in primary fibroblasts than HUES6: 52 fold
[9]; Homo sapiens, IMR-90, IMR-90, no serum
  IC50: 5.46 µM
[9]; Homo sapiens, IMR-90, IMR-90, serum
  IC50: 4.13 µM
